{
  "source": "paper PMC4426599",
  "about": "“Structure and mechanism of an antibiotics-synthesizing 3-hydroxykynurenine C-methyltransferase” (Scientific Reports, 2015)",
  "key": {"Ss-SibL (SibL) [1]": {"target": "T1, Ss-SibL (SibL) (Streptosporangium sibiricum, UniProt C0LTM6)", "T1 construct": "recombinant His6-tagged (pET-21b), E. coli BL21(DE3), Ni-NTA and gel filtration; homodimer; tag removal not described", "test": "X-ray crystal structure of binary complex, […] A", "format": "binding", "details": "crystals obtained by using SAM, modelled as SAH; pH 7.7; SAM site; also bound in ternary complex 4U1Q"}, "Ss-SibL (SibL) [2]": {"target": "T1, Ss-SibL (SibL)", "test": "X-ray crystal structure of ternary complex with SAH, […] A", "format": "binding", "details": "SAH bound; D-/L-3-HK used in crystallization; pH 7.7; substrate site"}, "[3]": {"target": "the molecule itself", "test": "crystal structure; crystals of apo Ss-SibL, of the binary complex with SAH and of the ternary complex with SAH and 3-HK; sitting-drop vapour diffusion; homodimer seen in the crystal"}},
  "data": [
    {"molecule": "Nc1ncnc2c1ncn2[C@@H]1O[C@H](CSCC[C@H](N)C(=O)O)[C@@H](O)[C@H]1O", "note": "[S-adenosylhomocysteine]", "values": [
      {"measurement": "X-ray crystal structure of binary complex, 2.6 A", "setting": "Ss-SibL (SibL) [1]", "result": "the binary Ss-SibL/SAH and the ternary Ss-SibL/SAH/3HK complex crystals diffracted to higher resolution"}
    ]},
    {"molecule": "Nc1c(O)cccc1C(=O)C[C@H](N)C(=O)O", "note": "[L-3-HK]", "values": [
      {"measurement": "X-ray crystal structure of ternary complex with SAH, 2.1 A", "setting": "Ss-SibL (SibL) [2]", "result": "the electron densities clearly indicate that the bound substrate is L-3-HK"}
    ]},
    {"molecule": "Streptosporangium sibiricum SibL (enzyme, SibL, SAM-dependent 3-hydroxykynurenine C-methyltransferase of Streptosporangium sibiricum; amplified by PCR from S. sibiricum genomic DNA and cloned into pET-21b; Homodimer in the crystals; The ternary complex was first phased with selenomethionine-substituted protein; also called Ss-SibL; 3-hydroxykynurenine C-methyltransferase; source: E. coli BL21 (DE3), purified (Ni-NTA, Superdex-200 size …)) MSSELSALVPVLFGHAAFQQLNAGCQLGLFELLHERGPLSAEEVADALRLPRRSADILLLGTTALGLSTVTDGGYRNGAPIGAAFRDGLWPVLRDIVQYQDKIAYQPAADYVESLRTGQNAGIRHFPGTTRDLYSRLAAVPGLEELFYRGMHAWSQLSNPVLLAQPDFTRVHRVLDVGGGDAVNAVALARAHPSLRVTVLDRPGALEVARKTIAEAGLEERVRTHAADIFTDSYPAGHDCVLFAHQLVIWSPEQNLTLLRKAYDAVEPGGRVLVFNAFTDDDRTGPLYAALDNVYFTTLPFRHSTIHRWADCESWLREAGFTDVGRTAPPGWTPHGVVSGSRPR", "values": [
      {"measurement": "stoichiometry N", "setting": "[3]", "result": 2}
    ]}
  ]
}
